The values that follow come from ChEMBL document CHEMBL1133322, “The synthesis and vasopressin (AVP) antagonist activity of a novel series of N-aroyl-2,4,5,6-tetrahydropyrazolo[3,4-d]thieno[3,2-b]azepines” (Bioorg Med Chem Lett, 2000).

The test system of assay [1] is Rattus norvegicus. The assay is described as follows: Urine volume was measured after 4 hours following oral compound dose of 10 mg/kg in rats deprived of food or water (water-loaded 30 mL/kg + 0.4 ug/kg of AVP intraperitoneal). Format: functional.
Assay [2] addresses T1, Vasopressin V2 receptor (Rattus norvegicus, UniProt Q00788). The assay is described as follows: In vitro for its binding affinity to rat V2 receptor.
The target of assay [3] is T2, Vasopressin V2 receptor (Homo sapiens, UniProt P30518). The assay is described as follows: In vitro binding affinity to human V2 receptor.
Assay [4] has as its system Rattus norvegicus. The assay is described as follows: Urine volume was measured after 4 hours following oral compound dose of 10 mg/kg in a volume of 10 mL/kg (20% dimethylsulfoxide in 2.5% preboiled starch) in rats deprived with food or water. Format: functional.
In assay [5] the target is T3, Vasopressin V1a receptor (Homo sapiens, UniProt P37288). Put plainly: In vitro binding affinity to human V1a receptor.
Target sequence in this assay (P37288 whole entry): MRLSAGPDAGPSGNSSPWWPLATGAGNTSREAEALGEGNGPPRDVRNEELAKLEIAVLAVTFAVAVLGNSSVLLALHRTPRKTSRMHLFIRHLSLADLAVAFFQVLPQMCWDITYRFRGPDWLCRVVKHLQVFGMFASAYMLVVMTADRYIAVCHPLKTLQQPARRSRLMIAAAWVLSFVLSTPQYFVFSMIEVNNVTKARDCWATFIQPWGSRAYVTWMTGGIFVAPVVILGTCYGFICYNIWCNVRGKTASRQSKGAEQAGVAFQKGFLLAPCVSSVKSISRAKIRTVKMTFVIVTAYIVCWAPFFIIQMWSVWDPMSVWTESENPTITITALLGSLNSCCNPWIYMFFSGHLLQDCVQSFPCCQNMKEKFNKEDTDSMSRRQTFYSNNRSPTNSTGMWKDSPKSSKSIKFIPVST
Assay [6] addresses Vasopressin V1a receptor (Rattus norvegicus, UniProt P30560). Put plainly: In vitro binding affinity for rat V1a receptor.
The target in assay [7] is T1, Vasopressin V2 receptor. The assay is described as follows: Binding affinity to rat V2 receptor.
In assay [8] the test system is Rattus norvegicus. The assay is described as follows: Urine volume was measured after 4 hours following oral compound dose of 3 mg/kg in rats deprived with food or water. Format: functional.
Assay [9] deals with Vasopressin V1a receptor (Rattus norvegicus) (UniProt P30560). Put plainly: In vitro inhibition against rat V1a receptor at 10 uM.
Assay [10] concerns the target T2, Vasopressin V2 receptor. The assay is described as follows: In vitro inhibition against human V2 receptor at 10 uM.
For assay [11], the target named is T3, Vasopressin V1a receptor. The assay is described as follows: In vitro inhibition against human V1a receptor at 10 uM.
Target sequence in this assay (P37288 whole entry, looked up): as the sequence (P37288 whole entry) above

In general, IC50 refers to the concentration needed to halve the response being measured. Higher therefore signals weaker potency. As a reminder, the inhibition is the change of the read-out against control, counted positive when it falls. Low values mean little suppression, high ones strong suppression.

Chain of Vasopressin V1a receptor (Rattus norvegicus, UniProt P30560) (P30560 whole entry): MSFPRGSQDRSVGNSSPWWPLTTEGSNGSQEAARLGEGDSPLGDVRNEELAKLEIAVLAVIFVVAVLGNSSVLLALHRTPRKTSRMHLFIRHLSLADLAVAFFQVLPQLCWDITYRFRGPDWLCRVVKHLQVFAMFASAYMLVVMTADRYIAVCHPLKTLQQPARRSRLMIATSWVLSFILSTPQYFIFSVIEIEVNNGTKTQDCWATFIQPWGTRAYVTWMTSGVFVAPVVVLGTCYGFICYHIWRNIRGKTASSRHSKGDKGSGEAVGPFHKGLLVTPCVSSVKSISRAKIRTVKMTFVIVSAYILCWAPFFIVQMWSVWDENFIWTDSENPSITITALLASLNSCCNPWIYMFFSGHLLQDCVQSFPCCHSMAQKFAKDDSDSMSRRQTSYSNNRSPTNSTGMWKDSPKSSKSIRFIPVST
T2 sequence (P30518 whole entry): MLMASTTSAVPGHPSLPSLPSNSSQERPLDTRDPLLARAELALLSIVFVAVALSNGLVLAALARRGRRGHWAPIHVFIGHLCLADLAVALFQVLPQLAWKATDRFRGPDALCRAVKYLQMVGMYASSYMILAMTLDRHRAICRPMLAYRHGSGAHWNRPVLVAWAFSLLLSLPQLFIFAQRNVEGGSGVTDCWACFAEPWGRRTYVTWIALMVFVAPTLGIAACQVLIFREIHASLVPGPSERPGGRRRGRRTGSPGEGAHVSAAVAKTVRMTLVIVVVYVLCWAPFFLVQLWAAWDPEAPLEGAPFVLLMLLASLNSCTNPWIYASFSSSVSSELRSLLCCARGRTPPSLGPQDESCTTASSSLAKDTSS
T1 sequence (Q00788 whole entry): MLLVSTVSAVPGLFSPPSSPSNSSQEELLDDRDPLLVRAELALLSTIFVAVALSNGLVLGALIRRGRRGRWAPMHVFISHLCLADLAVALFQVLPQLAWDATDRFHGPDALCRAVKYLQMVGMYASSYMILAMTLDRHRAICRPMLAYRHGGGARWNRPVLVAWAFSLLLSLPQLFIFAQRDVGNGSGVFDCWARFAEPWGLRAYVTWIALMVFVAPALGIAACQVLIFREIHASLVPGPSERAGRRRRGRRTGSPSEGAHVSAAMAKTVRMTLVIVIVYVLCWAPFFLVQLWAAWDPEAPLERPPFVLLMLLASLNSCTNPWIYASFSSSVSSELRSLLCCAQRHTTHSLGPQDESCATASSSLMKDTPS
Chain of Vasopressin V1a receptor (Rattus norvegicus) (P30560 whole entry, looked up): as the sequence (P30560 whole entry) above

Regarding `O=C(Nc1ccc(C(=O)N2CCCCc3sc(Cl)cc32)cc1)c1ccc(Cl)cc1Cl`, in assay [1], the Urine volume is listed as 8 ml 4hr-1.
Consider `Cc1ccc(F)cc1C(=O)Nc1ccc(C(=O)N2CCc3c[nH]nc3-c3sccc32)cc1`, for which the 50% inhibitory concentration (IC50) was 69 nM in [2] and 71 nM in [3]. For the same molecule, the Urine volume in assay [1] is on record as 18 ml 4hr-1.
Take `O=C(Nc1ccc(C(=O)N2Cc3cccn3Cc3ccccc32)cc1)c1ccccc1-c1ccccc1`: the Urine volume in assay [4] turned out to be 21 ml 4hr-1.
For the molecule `Cc1ccccc1C(=O)Nc1ccc(C(=O)N2CCc3cn(C)nc3-c3sccc32)cc1`, the Urine volume in assay [4] turned out to be 3 ml 4hr-1. In addition, the half-inhibitory concentration (IC50) was 1740 nM in assay [5], 2010 nM in [6], 24 nM in [7] and 220 nM in assay [3].
As for `O=C(Nc1ccc(C(=O)N2Cc3cccn3Cc3ccccc32)c(Cl)c1)c1ccccc1-c1ccccc1`, the values for the Urine volume in [4] and in [8] were 27 ml 4hr-1 and 20 ml 4hr-1, respectively. Also, the results for the IC50 in assay [5] and in assay [3] were 370 nM and 2.7 nM, respectively.
In turn, `O=C(Nc1ccc(C(=O)N2CCCCc3sccc32)c(Cl)c1)c1ccccc1-c1ccccc1` displayed a Urine volume in assay [4] of 19 ml 4hr-1. The IC50 in [5] was 86 nM; in [7], 1.2 nM.
Regarding `Cc1ccccc1C(=O)Nc1ccc(C(=O)N2CCc3c[nH]nc3-c3sccc32)cc1`, the IC50 is 240 nM in assay [5], 2100 nM in [6], 120 nM in assay [2] and 130 nM in assay [3]. Further, the Urine volume in [1] came out at 21 ml 4hr-1.
On to `O=C(Nc1ccc(C(=O)N2CCc3c[nH]nc3-c3sccc32)cc1)c1ccc(F)cc1Cl`, for which the Urine volume in [4] was found to be 15 ml 4hr-1. Besides, the half-maximal inhibitory concentration (IC50) in assay [3] was 140 nM.
Consider `O=C(Nc1ccc(C(=O)N2CCc3c[nH]nc3-c3sccc32)c(Cl)c1)c1ccccc1-c1ccccc1`, for which the Urine volume in assay [4] came out at 27 ml 4hr-1; in assay [8] it was 22 ml 4hr-1. The half-inhibitory concentration (IC50) in assay [3] was 1.7 nM.
In turn, `O=C(Nc1ccc(C(=O)N2CCc3c[nH]nc3-c3sccc32)c(Cl)c1)c1cc(Cl)ccc1F` gave a Urine volume in assay [4] of 12 ml 4hr-1. For the same molecule, in assay [9], the inhibition turned out to be 18%.
Molecule `O=C(Nc1ccc(C(=O)N2CCCCc3sc(Cl)cc32)cc1)c1ccccc1-c1ccccc1` gave a Urine volume in assay [4] of 20 ml 4hr-1. Moreover, the figures for the half-inhibitory concentration (IC50) in [5] and in assay [7] were 82 nM and 3.2 nM, respectively.
On to `Cc1ccccc1C(=O)Nc1ccc(C(=O)N2CCc3cn(C(=O)c4ccccc4C)nc3-c3sccc32)cc1`, for which the inhibition in [10] and in assay [11] was 88% each time. For the same molecule, the Urine volume in assay [1] came out at 14 ml 4hr-1.
As to `O=C(Nc1ccc(C(=O)N2Cc3cccn3Cc3ccccc32)cc1)c1ccc(Cl)cc1Cl`, the Urine volume in [1] turned out to be 16 ml 4hr-1.
For `Cn1cc2c(n1)-c1sccc1N(C(=O)c1ccc(NC(=O)c3ccc(Cl)cc3Cl)cc1)CC2`, the IC50 in assay [5] was 4100 nM; in assay [6] it was 2100 nM; in [7] it was 38 nM; in [3] it was 150 nM. In addition, the Urine volume in [1] is recorded as 6 ml 4hr-1.
Consider `Cc1ccc(F)cc1C(=O)Nc1ccc(C(=O)N2Cc3cccn3Cc3ccccc32)c(Cl)c1` [LIXIVAPTAN], for which the Urine volume in assay [4] is 22 ml 4hr-1; in assay [8], 20 ml 4hr-1.
In assay [4], `Cc1ccc(F)cc1C(=O)Nc1ccc(C(=O)N2CCc3c[nH]nc3-c3sccc32)c(Cl)c1` showed a Urine volume of 7 ml 4hr-1. The molecule also yielded an inhibition in [11] of 69%. Further, the results for the IC50 in assay [6] and in [2] were 12400 nM and 6 nM, respectively.
Take `Cc1ccc(F)cc1C(=O)Nc1ccc(C(=O)N2CCCCc3sccc32)c(Cl)c1`: in assay [1], the Urine volume turned out to be 4 ml 4hr-1.
As to `O=C(Nc1ccc(C(=O)N2CCCCc3sc(Cl)cc32)c(Cl)c1)c1ccccc1-c1ccccc1`, in assay [4], the Urine volume is reported as 22 ml 4hr-1.
`Cn1cc2c(n1)-c1sccc1N(C(=O)c1ccc(NC(=O)C3CCCCC3)cc1)CC2`: the Urine volume in assay [1] came out at 9 ml 4hr-1.
